According to patent publication EP0556660A1, “Utilisation of fatty alpha-hydroxy acids and the compositions containing them” (Beiersdorf Aktiengesellschaft, priority 1992, dated 1993):

Experiments:
[1] = Free Ca2+ after addition of test substance, fluorimetric with FURA 2; assay type: physicochemical; settings: free Ca²⁺ after addition of 1 mmol (1 mM) test substance; pH 7,1; control without fatty acid 200
Method: Die erfindungsgemäßen alpha-Hydroxyfettsäuren haben gegenüber Schwermetallionen, z.B. Fe²⁺ oder Erdalkali-Ionen wie Ca²⁺ eine hohe Bindungsfähigkeit, wie die folgende Untersuchung zeigt: a) Konzentration an freiem Ca²⁺ nach Zugabe von 1 mmol Testsubstanz
(§1) Der Testpuffer (100 mM KCl, 10 mM HEPES, 1 mM EGTA 0,5 mM CaCl₂, pH 7,1) wurden mit je 1 mM der Testsubstanz versetzt. Entstehende Niederschläge wurden abfiltriert. Das Filtrat wurde mit KOH auf pH 7,1 eingestellt und mit 1 µM FURA 2 versetzt. Die Konzentration an Ca²⁺ wurde fluorimetrisch bestimmt (Anregung 340 nm, 359 nm, 380 nm, Emission 510 nm). b) Konzentration an freiem Fe²⁺ nach Zugabe von 1 mmol alpha-Hydroxypalmitinsäure

[2] = Free Fe2+ after addition of test substance, photometric with 2,2'-Bipyridin; assay type: physicochemical; settings: 1 mmol test substance mixed with 1 mmol Fe²⁺
Method: as §1
1 mmol Testsubstanz wurde mit 1 mmol Fe²⁺ versetzt. Entstehende Niederschläge wurden abfiltriert. Die Filtrate wurden mit 2,2'-Bipyridin versetzt und bei 565 nm photometrisch vermessen.

Corynebacterium xerosis = experiment: Minimal inhibitory concentration; assay type: cell-based; settings: 72 h incubation
Method: (§2) Bestimmung der minimalen Hemmkonzentration Eine frische Übernachtkultur des Testorganismus wurde 1:10⁴ in Nährmedium (5 g/ltr Tryptone, 3 g/ltr Hefeextrakt, pH 7,0) verdünnt und 3h inkubiert (30° C, 250 rpm). Anschließend wurde alpha-Hydroxy-palmitinsäure (D) in einer Endkonzentration von 2,0%; 1,5%; 1,0%; 0,75%; 0,5%; 0,25%; 0,1% und 0,06% zugegeben. Nach 72 h Inkubationszeit wurden der Bakterientiter durch Verdünnung und Ausplattierung überprüft. Bei den Ansätzen, bei denen keine Bakterien nachweisbar waren, wurde 1 ml des Ansatzes mit 9 ml Nährmedium versetzt und über Nacht inkubiert (30° C, 250 rpm). […]

[3] = test system: Staphylococcus epidermidis; experiment: Minimal inhibitory concentration; assay type: cell-based; settings: 72 h incubation
Method: as §2

Pseudomonas putida = experiment: Minimal inhibitory concentration; assay type: cell-based; settings: 72 h incubation
Method: as §2

[4] = test system: Acinetobacter calcoaceticus; experiment: Minimal inhibitory concentration; assay type: cell-based; settings: 72 h incubation
Method: as §2

Pseudomonas aeruginosa = experiment: Minimal inhibitory concentration; assay type: cell-based; settings: 72 h incubation
Method: as §2

Micrococcus luteus = experiment: Minimal inhibitory concentration; assay type: cell-based; settings: 72 h incubation
Method: as §2

Klebsiella pneumoniae = experiment: Minimal inhibitory concentration; assay type: cell-based; settings: 72 h incubation
Method: as §2

Escherichia coli = experiment: Minimal inhibitory concentration; assay type: cell-based; settings: 72 h incubation
Method: as §2

Salmonella livingstone = experiment: Minimal inhibitory concentration; assay type: cell-based; settings: 72 h incubation
Method: as §2

SMILES | Konz. Ca²⁺ [1] | Konz. Fe²⁺ [2] | also measured
O=C(O)CC(O)(CC(=O)O)C(=O)O [Citronensäure] | 139 nmol | 110 µmol | 
O=C(O)CN(CCN(CC(=O)O)CC(=O)O)CC(=O)O [EDTA] | 25 nmol |  | 
CCCCCCCCCCCCCC(=O)O [Myristinsäure] | 233 nmol |  | 
CCCCCCCCCCCCCC[C@@H](O)C(=O)O [alpha-OH-Hexadecansäure (D), alpha-Hydroxy-hexadecansäure] |  |  | Minimale Hemmkonzentration (Corynebacterium xerosis): 0,10%; Minimale Hemmkonzentration [3]: 0,10%; Minimale Hemmkonzentration (Pseudomonas putida): 0,10%; Minimale Hemmkonzentration [4]: 0,75%; Minimale Hemmkonzentration (Pseudomonas aeruginosa): 0,25%; Minimale Hemmkonzentration (Micrococcus luteus): 0,25%; Minimale Hemmkonzentration (Klebsiella pneumoniae): 0,50%; Minimale Hemmkonzentration (Escherichia coli): 0,50%; Minimale Hemmkonzentration (Salmonella livingstone): 0,50%

Second part, led by results:

Konz. Ca²⁺ [1] | Konz. Fe²⁺ [2] | SMILES | also measured
200 nmol | 100 µmol | O=C(O)C(O)c1ccccc1 (stereo not shown) [Mandelsäure] | 
249 nmol |  | CCCCCCCCCCCCCCCC(=O)O [Palmitinsäure] | 
32 nmol |  | CCCCCCCCCCCCC(O)C(=O)O (stereo not drawn) [alpha-Hydroxy-myristinsäure] | 
38 nmol | 20 µmol | CCCCCCCCCCCCCCC(O)C(=O)O (stereo not drawn) [alpha-Hydroxypalmitinsäure] | 
